# Results taken from PubChem BioAssay AID2060490 (Molecular Pharmacology Branch, DTP, NCI, 2025).
# Test system: 885512-296-R-J2-PDC complex spheroid viability
# Assay: Anticancer human tumor 885512-296-R-J2-PDC patient-derived breast carcinoma cell line growth inhibition [GQUAD]
# Conditions: for IC50: curve of first compound; for viability, T/C: stronger effect = lower value
# Method in brief: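 Multi-cell-type spheroids of tumor cells with HUVEC and mesenchymal stem cells, treated with drug combinations. Concentrations descend in half-log steps from near clinical Cmax, or from 10 microM where Cmax is unknown; viability read-out.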
# [1] = second compound 0.0316 µM, first compound 0.0316 µM
# [2] = second compound 0.0316 µM, first compound 0.1 µM
# [3] = second compound 0.0316 µM, first compound 0.316 µM
# [4] = second compound 0.0316 µM, first compound 1 µM
# [5] = second compound 0.0316 µM, first compound 3.16 µM
# [6] = second compound 0.0316 µM, first compound 10 µM
# [7] = second compound 0.1 µM, first compound 0.0316 µM
# [8] = second compound 0.1 µM, first compound 0.1 µM
# [9] = second compound 0.1 µM, first compound 0.316 µM
# [10] = second compound 0.1 µM, first compound 1 µM
# [11] = second compound 0.1 µM, first compound 3.16 µM
# [12] = second compound 0.1 µM, first compound 10 µM
# [13] = second compound 0.316 µM, first compound 0.0316 µM
# [14] = second compound 0.316 µM, first compound 0.1 µM
# [15] = second compound 0.316 µM, first compound 0.316 µM
# [16] = second compound 0.316 µM, first compound 1 µM
# [17] = second compound 0.316 µM, first compound 3.16 µM
# [18] = second compound 0.316 µM, first compound 10 µM
# [19] = second compound 1 µM, first compound 0.0316 µM
# [20] = second compound 1 µM, first compound 0.1 µM
# [21] = second compound 1 µM, first compound 0.316 µM
# [22] = second compound 1 µM, first compound 1 µM
# [23] = second compound 1 µM, first compound 3.16 µM
# [24] = second compound 1 µM, first compound 10 µM
# [25] = second compound 3.16 µM, first compound 0.0316 µM
# [26] = second compound 3.16 µM, first compound 0.1 µM
# [27] = second compound 3.16 µM, first compound 0.316 µM
# [28] = second compound 3.16 µM, first compound 1 µM
# [29] = second compound 3.16 µM, first compound 3.16 µM
# [30] = second compound 3.16 µM, first compound 10 µM
# [31] = second compound 10 µM, first compound 0.0316 µM
# [32] = second compound 10 µM, first compound 0.1 µM
# [33] = second compound 10 µM, first compound 0.316 µM
# [34] = second compound 10 µM, first compound 1 µM
# [35] = second compound 10 µM, first compound 3.16 µM
# [36] = second compound 10 µM, first compound 10 µM
# 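Note: spheroids exposed to the compounds for one week.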
# 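Throughout, for viability, T/C: percent of tumor spheroid viability relative to DMSO vehicle control wells.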
compound,measurement,setting,value
CC1COCCN1c1cc(C2(O)CC3CCC(C2)O3)c2cnn(-c3ccn[nH]3)c2n1 (stereo unspecified) + Cc1[nH]c2ccc(F)cc2c1-c1nc2c3cccnc3c3ncccc3c2[nH]1,IC50,second compound 0.0316 µM,< 31.6 nM
same,IC50,second compound 0.1 µM,< 31.6 nM
same,IC50,second compound 0.316 µM,< 31.6 nM
same,IC50,second compound 1 µM,< 31.6 nM
same,IC50,second compound 3.16 µM,< 31.6 nM
same,IC50,second compound 10 µM,< 31.6 nM
same,"viability, T/C",[1],34.7%
same,"viability, T/C",[2],5.25%
same,"viability, T/C",[3],3.32%
same,"viability, T/C",[4],4.26%
same,"viability, T/C",[5],6.56%
same,"viability, T/C",[6],9.72%
same,"viability, T/C",[7],29.1%
same,"viability, T/C",[8],4.51%
same,"viability, T/C",[9],2.65%
same,"viability, T/C",[10],4.14%
same,"viability, T/C",[11],6.29%
same,"viability, T/C",[12],8.64%
same,"viability, T/C",[13],14.5%
same,"viability, T/C",[14],3.01%
same,"viability, T/C",[15],3.13%
same,"viability, T/C",[16],3.89%
same,"viability, T/C",[17],7.17%
same,"viability, T/C",[18],8.72%
same,"viability, T/C",[19],3.34%
same,"viability, T/C",[20],3.2%
same,"viability, T/C",[21],2.99%
same,"viability, T/C",[22],3.85%
same,"viability, T/C",[23],7.13%
same,"viability, T/C",[24],4.46%
same,"viability, T/C",[25],1.99%
same,"viability, T/C",[26],1.52%
same,"viability, T/C",[27],2.56%
same,"viability, T/C",[28],3.64%
same,"viability, T/C",[29],4.56%
same,"viability, T/C",[30],3.61%
same,"viability, T/C",[31],1.09%
same,"viability, T/C",[32],1.19%
same,"viability, T/C",[33],1.76%
same,"viability, T/C",[34],2.85%
same,"viability, T/C",[35],4.02%
same,"viability, T/C",[36],3.55%
Cn1ncnc1[C@H]1c2n[nH]c(=O)c3cc(F)cc(c23)N[C@@H]1c1ccc(F)cc1 + CN(C)c1ccc(Nc2c3ccc(NC(=O)CCN4CCCC4)cc3nc3cc(NC(=O)CCN4CCCC4)ccc23)cc1,IC50,second compound 0.0316 µM,208 nM
same,IC50,second compound 0.1 µM,> 316 nM
same,IC50,second compound 0.316 µM,215 nM
same,IC50,second compound 1 µM,195 nM
same,IC50,second compound 3.16 µM,74 nM
same,IC50,second compound 10 µM,< 0.999 nM
same,"viability, T/C","second compound 0.0316 µM, first compound 0.000999 µM",90%
same,"viability, T/C","second compound 0.0316 µM, first compound 0.00316 µM",96.1%
same,"viability, T/C","second compound 0.0316 µM, first compound 0.00999 µM",91.3%
same,"viability, T/C",[1],90.5%
same,"viability, T/C","second compound 0.0316 µM, first compound 0.0999 µM",64.3%
same,"viability, T/C",[3],41.9%
same,"viability, T/C","second compound 0.1 µM, first compound 0.000999 µM",112%
same,"viability, T/C","second compound 0.1 µM, first compound 0.00316 µM",91.8%
same,"viability, T/C","second compound 0.1 µM, first compound 0.00999 µM",99.3%
same,"viability, T/C",[7],75.9%
same,"viability, T/C","second compound 0.1 µM, first compound 0.0999 µM",71.6%
same,"viability, T/C",[9],53.9%
same,"viability, T/C","second compound 0.316 µM, first compound 0.000999 µM",112%
same,"viability, T/C","second compound 0.316 µM, first compound 0.00316 µM",101%
same,"viability, T/C","second compound 0.316 µM, first compound 0.00999 µM",94.4%
same,"viability, T/C",[13],79.5%
same,"viability, T/C","second compound 0.316 µM, first compound 0.0999 µM",61.5%
same,"viability, T/C",[15],44%
same,"viability, T/C","second compound 1 µM, first compound 0.000999 µM",96.8%
same,"viability, T/C","second compound 1 µM, first compound 0.00316 µM",94%
same,"viability, T/C","second compound 1 µM, first compound 0.00999 µM",90.4%
same,"viability, T/C",[19],81.4%
same,"viability, T/C","second compound 1 µM, first compound 0.0999 µM",57.8%
same,"viability, T/C",[21],44.2%
same,"viability, T/C","second compound 3.16 µM, first compound 0.000999 µM",95.2%
same,"viability, T/C","second compound 3.16 µM, first compound 0.00316 µM",96.9%
same,"viability, T/C","second compound 3.16 µM, first compound 0.00999 µM",93.8%
same,"viability, T/C",[25],64.7%
same,"viability, T/C","second compound 3.16 µM, first compound 0.0999 µM",47.8%
same,"viability, T/C",[27],36%
same,"viability, T/C","second compound 10 µM, first compound 0.000999 µM",18.6%
same,"viability, T/C","second compound 10 µM, first compound 0.00316 µM",23%
same,"viability, T/C","second compound 10 µM, first compound 0.00999 µM",25%
same,"viability, T/C",[31],20.3%
same,"viability, T/C","second compound 10 µM, first compound 0.0999 µM",19.1%
same,"viability, T/C",[33],15.5%
O=C(NO)c1cnc(N2CCN(S(=O)(=O)c3ccc4ccccc4c3)CC2)nc1 + Cc1cnc(CNC(=O)c2c(=O)c3ccc(N4CCCN(C)CC4)nc3n3c2sc2ccccc23)cn1,IC50,second compound 0.0316 µM,64.4 nM
same,IC50,second compound 0.1 µM,< 31.6 nM
same,IC50,second compound 0.316 µM,< 31.6 nM
same,IC50,second compound 1 µM,< 31.6 nM
same,IC50,second compound 3.16 µM,< 31.6 nM
same,IC50,second compound 10 µM,< 31.6 nM
same,"viability, T/C",[1],65.9%
same,"viability, T/C",[2],38.7%
same,"viability, T/C",[3],23.6%
same,"viability, T/C",[4],5.79%
same,"viability, T/C",[5],0.51%
same,"viability, T/C",[6],0.13%
same,"viability, T/C",[7],42.8%
same,"viability, T/C",[8],37.7%
same,"viability, T/C",[9],27.8%
same,"viability, T/C",[10],6.31%
same,"viability, T/C",[11],0.49%
same,"viability, T/C",[12],0.43%
same,"viability, T/C",[13],22.8%
same,"viability, T/C",[14],19.5%
same,"viability, T/C",[15],21.7%
same,"viability, T/C",[16],7.7%
same,"viability, T/C",[17],0.43%
same,"viability, T/C",[18],0.1%
same,"viability, T/C",[19],19.3%
same,"viability, T/C",[20],14.9%
same,"viability, T/C",[21],13.7%
same,"viability, T/C",[22],0.1%
same,"viability, T/C",[23],0.07%
same,"viability, T/C",[24],0.11%
same,"viability, T/C",[25],10%
same,"viability, T/C",[26],6.5%
same,"viability, T/C",[27],0.13%
same,"viability, T/C",[28],0.1%
same,"viability, T/C",[29],0.09%
same,"viability, T/C",[30],0.12%
same,"viability, T/C",[31],0.07%
same,"viability, T/C",[32],0.15%
same,"viability, T/C",[33],0.15%
same,"viability, T/C",[34],0.12%
same,"viability, T/C",[35],0.15%
same,"viability, T/C",[36],0.17%
